US6239104A, “Isolation and structural elucidation of the cytostatic linear and cyclo-depsipeptides dolastatin 16, dolastatin 17, and dolastatin 18” (priority 1999, dated 2001)
In brackets after ≈: the same amount, converted by molar mass. Starred links: 1 amine or outer side, 2 acyl side, 3 side chain; linkers in the order of their positions; H or OH if unused. Non-standard residues stand in square brackets, D forms with d. Residues, ends and D or L forms follow the SMILES beside them. X1 = CC(Cc1ccccc1)C(N[*:1])C(=O)[*:2]; X2 = CC(C)C(N[*:1])C(C)C(=O)[*:2]; dNMeV = CN[C@@H](C(=O)O)C(C)C; dHiv = CC(C)[C@@H](O)C(=O)O; Lac = C[C@H](O)C(=O)O

How the values were obtained:
Format in all cases: cell-based
[1] = tested on: NCI-H460; experiment: NCI human cancer cell line minipanel, lung NCI-H460
From the text: (§1) The administration of Dolastatin 16 is useful for treating neoplastic disease associated with malignant cell growth, and expectedly its synthetic counterpart, as well as, its pharmaceutically and physiologically active derivatives will be useful for treating neoplastic disease associated with malignant cell growth in animals and humans. For example, Dolastatin 16 was screened against a minipanel of the U.S. National Cancer Institute's human cancer cell lines utilizing protocols described by Michael R. Boyd and Kenneth D. Paul in Some Practical Considerations and Applications of the National Cancer Institute In Vitro Anticancer Drug Discovery Screen, 34 DRUG D[…] 91 (1995) (and references cited therein).
as §1, with “17” for “16”, “91 (1995) (and references cited therein).” left out

[2] = tested on: KM 20L2; experiment: NCI human cancer cell line minipanel, colon KM 20L2
From the text: as §1
as §1, with “17” for “16”, “91 (1995) (and references cited therein).” left out

[3] = tested on: SF-295; experiment: NCI human cancer cell line minipanel, brain SF-295
From the text: as §1
as §1, with “17” for “16”, “91 (1995) (and references cited therein).” left out

[4] = tested on: SK-MEL-5; experiment: NCI human cancer cell line minipanel, melanoma SK-MEL-5
From the text: as §1

[5] = tested on: complete panel of sixty human cancer cell lines; experiment: NCI complete panel of sixty human cancer cell lines
From the text: as §1

[6] = tested on: five human leukemia cell lines; experiment: NCI screen, five human leukemia cell lines; conditions: in words
From the text: as §1

[7] = tested on: a selection of human cancer cell lines, including lung cancer; experiment: NCI minipanel, selection of human cancer cell lines; conditions: in words
From the text: as §1, with “18” for “16”

Structure (SMILES) | GI50 ([1]; lung NCI-H460) [ng/mL] | GI50 [2] [ng/mL] | GI50 [3] [ng/mL] | GI50 [4] [ng/mL] | GI50 [5] [nM] | growth inhibition [6] | ED50 ([1]; lung cancer NCI-H460) [ng/mL] | growth inhibition [7]
CC(C)C1NC(=O)[C@@H]2CCCN2C(=O)C(C(C)Cc2ccccc2)NC(=O)[C@@H]2CCCN2C(=O)[C@@H](C(C)C)N(C)C(=O)[C@@H](C(C)C)OC(=O)[C@@H]2CCCN2C(=O)[C@H](C)OC(=O)C1C (some centres unmarked) [Dolastatin 16, cyclo-(Pro^1 --Dpv^2 --Pro^3 --Dml^4 --O--Lac^5 --Pro^6 --O--Hiv^7 --MeVal^8)] (cyclo([Lac]P[dHiv][dNMeV]P[X1]P[X2])) | 0.96 (≈ 1.09 nM) | 1.2 (≈ 1.37 nM) | 5.2 (≈ 5.92 nM) | 3.3 (≈ 3.75 nM) | 250 | comparable inhibitory results |  | 
CCCC(=O)C(C)(C)C(=O)N[C@@H](CC(C)C)C(=O)N(C)[C@H](Cc1ccccc1)C(=O)N[C@@H](Cc1ccccc1)c1nccs1 [Dolastatin 18, Dhex--Leu--MePhe--Doe] |  |  |  |  |  |  | 390 (≈ 630 nM) | significantly inhibit growth
